Data set [1] is described as follows: Aqueous solubility at room temperature. The data set is classed as physicochemical. The conditions noted are these: water.
The conditions of data set [2]: cited from earlier work.
Data set [3] in a line: Dog PK study: serum concentrations of zoledronic acid after IV or oral (gelatin capsule, enteric or non-enteric coated, with or without excess coformer, micronized) dosing, LC/MS/MS. In kind it is in vivo. The conditions noted are these: beagle, Leg 1, IV 0.05 mg/kg, saline solution, time 0 hour (pre-dose), read-out: Average serum concentration of 5 dogs.
Protocol: Surgical catheters (jugular vein and intraduodenum) were implanted to the animals prior to the study. Beagle dogs from Marshall Farms, N.Y., USA, weighing from (9-12 kg) were used in this study. Surgical catheters (jugular vein) were implanted prior to the study.
IV Administration: The dose volume of each dog was adjusted based upon the average weight of the dog. • ii.
Prior to dosing, all dogs received a 20 mL dose of citric acid (24 mg/mL in water) to lower the pH of their stomach. After dosing capsules or IV, all dogs received additional 6.25 mL citric acid solution (24 mg/mL in water) as a rinse.
Group A, (IV administration). Group members, designated IV doses are listed below:
Group B (oral administration): Group designations and oral doses are listed below:
Group C (oral administration): Group designations and oral doses are listed below:
Group D, (15 min IV infusion): Group members, designated IV doses are listed below:
Group E, (oral administration): Group members, designated IV doses are listed below:
Group F, (15 min IV infusion): Group members, designated IV doses are listed below: […]
The conditions of data set [4]: cited from earlier work. The source holds these as a separate data set.
Data set [5] in a line: Rat PK study: plasma concentrations of zoledronic acid after IV, oral gavage or intraduodenal (ID) dosing, LC/MS/MS. In kind it is in vivo, Sprague-Dawley Rats. As for the experimental part:
These studies were conducted on rats and dogs as they are suitable animal models for zoledronic acid. This can be attributed to the fact that both animals have historically been used in the safety evaluation and PK screening studies and are recommended by appropriate regulatory agencies. […] Pure zoledronic acid and zoledronic acid complexes prepared by the methods in this invention were delivered to the rats and dogs through IV or oral routes. Additional tests included ID administration in rats and administration of enteric coated capsules in dogs. All compounds delivered were well tolerated by the animals with no adverse events or physical abnormalities noticed. […] USA. Surgical catheters (jugular vein and intraduodenum) were implanted to the animals prior to the study. […] Surgical catheters (jugular vein) were implanted prior to the study. […] Zoledronic acid and its complex formulations were administered through IV, oral and ID. […] The dose of each rat was calculated on a per rat basis (not on an average weight of all the rats in the lot). • ii. Oral gavage administration: solid suspensions were administered. The dose of each rat was calculated on a per rat basis (not on an average weight of all the rats in the lot). […] Duodenal cannula administration: solid suspensions were administered. The dose of each rat was calculated on a per rat basis (not on an average weight of all the rats in the lot). […] Group I (IV administration). Group members, designated IV doses are listed below IV comparator group, was conducted to calculate MAT (mean absorption time) and ka (absorption rate constant) for the oral groups. Group II (oral gavage): Group designations and oral doses are listed below: Group III (ID administration): Group designations and oral doses are listed below: Group IV (oral gavage): Group designations and oral doses are listed below: […] Samples were thawed on the day of analysis and the amount of zoledronic acid in the samples was quantified by analyzed by LC/MS/MS method.

The mark [6] stands for this setting: molar concentration of the complex.
Setting [7] is: ID (duodenal cannula) 5 mg/kg zoledronic acid equivalent, PEG 400, time 8 hour.
Setting [8] is: ID (duodenal cannula) 5 mg/kg zoledronic acid equivalent, PEG 400, time 24 hour.
The mark [9] stands for this setting: PO gavage 5 mg/kg zoledronic acid equivalent, PEG 400, time 24 hour (Table 1).

Like-named read-outs stand apart in the source and are kept apart here.

As for `O=P(O)(O)C(O)(Cn1ccnc1)P(=O)(O)O` [ZA monohydrate, Zoledronic acid monohydrate, reference compound], the solubility is 5.41 mmol/L in data set [1] (molar concentration of the complex, read-out: Aqueous solubility, mMol/L (complex)) and 1570 µg/mL in data set [1] (read-out: Aqueous solubility, Conc.).

For `NCCCCC(N)C(=O)O.O.O=P(O)(O)C(O)(Cn1ccnc1)P(=O)(O)O` [ZA:DL-Lysine monohydrate], the “Aqueous solubility, Conc.” value in data set [1] was 13900 µg/mL. For the same compound, the “Aqueous solubility, mMol/L (complex)” value in data set [1] (setting [6]) came out at 31.86 mmol/L.

In the case of `NCCCCC(N)C(=O)O.O.O.O=P(O)(O)C(O)(Cn1ccnc1)P(=O)(O)O` [ZA:L-Lysine dihydrate], the “Aqueous solubility, Conc.” value in data set [1] is 8220 µg/mL. The “Aqueous solubility, mMol/L (complex)” value in data set [1] (setting [6]) came out at 18.09 mmol/L.

Consider `O=P(O)(O)C(O)(Cn1ccnc1)P(=O)(O)O` [Zoledronic acid, (1-hydroxy-2-imidazol-1-yl-1-phosphono-ethyl)phosphonic acid], for which the oral bioavailability result in data set [2] (according to FDA Summary Basis of Approval) is “approximately 1%”. The “gastric and intestinal irritation” value in data set [2] (in vivo) was “severe gastric and intestinal irritations”. In addition, in data set [3], the concentration at 0 h came to 0 ng/mL. Moreover, the “solubility in 0.1 N HCl solution” value in data set [4] (0.1 N HCl solution) is listed as “sparingly soluble”. In addition, the “solubility in 0.1 N NaOH” value in data set [4] (0.1 N NaOH) was “freely soluble”. Besides, the “solubility in various organic solvents” value in data set [4] (various organic solvents) is recorded as “practically insoluble”. For the same compound, in data set [4] (water), the solubility in water entry was “sparingly soluble”.

In the case of Zoledronic, L-lysine, and water complex, the “Average plasma concentration of 3 Rats” value stood at 91.21 ng/mL in data set [5] (ID (duodenal cannula) 5 mg/kg zoledronic acid equivalent, PEG 400, time 0.25 hour); 26.53 ng/mL in data set [5] (ID (duodenal cannula) 5 mg/kg zoledronic acid equivalent, PEG 400, time 1 hour); 0.74 ng/mL in data set [5] (ID (duodenal cannula) 5 mg/kg zoledronic acid equivalent, PEG 400, time 4 hour); 0.00 ng/mL in data set [5] (setting [7]); 0.00 ng/mL in data set [5] (setting [8]); 258.43 ng/mL in data set [5] (PO gavage 5 mg/kg zoledronic acid equivalent, PEG 400, time 0.25 hour (Table 1)). Further, the “Average plasma concentration of 3 Rats” value in data set [5] (PO gavage 5 mg/kg zoledronic acid equivalent, PEG 400, time 0.5 hour (Table 1)) worked out at 249.82 ng/mL; in data set [5] (PO gavage 5 mg/kg zoledronic acid equivalent, PEG 400, time 1 hour (Table 1)), 184.95 ng/mL; in data set [5] (PO gavage 5 mg/kg zoledronic acid equivalent, PEG 400, time 4 hour (Table 1)), 28.70 ng/mL; in data set [5] (PO gavage 5 mg/kg zoledronic acid equivalent, PEG 400, time 8 hour (Table 1)) it was 3.27 ng/mL; in data set [5] (setting [9]), 0.00 ng/mL.

Regarding “Zoledronic, Nicotinamide, and Water Complex”, the “Average plasma concentration of 3 Rats” value in data set [5] (setting [7]), in data set [5] (setting [8]) and in data set [5] (setting [9]) was 0.00 ng/mL each time.

The record behind these values is patent US10195218B2, “Crystallization method and bioavailability” (GRUNENTHAL GMBH, priority 2016, dated 2019).
